Assay results published in publication PMC9516332 (Frontiers in Oncology, 2022).

What was measured:
Test in all cases: Kinase panel profiling at 1 µmol/L (MSA or IMAP), percentage inhibition
Type in all cases: biochemical
[1] = target: panel of 255 wild-type kinases (Homo sapiens, UniProt O60674); settings: kinase JAK2; 1 µmol/L single concentration; read-out: %-inhibition at 1 µmol/L, JAK2
[2] = target: panel of 255 wild-type kinases (Homo sapiens, UniProt O96013); settings: PAK4; 1 µmol/L single concentration; read-out: %-inhibition, PAK4
[3] = target: T1, panel of 255 wild-type kinases (Homo sapiens, UniProt P54762); settings: kinase EPHB1; 1 µmol/L single concentration; read-out: %-inhibition at 1 µmol/L, EPHB1
T1 sequence (P54762 18-984): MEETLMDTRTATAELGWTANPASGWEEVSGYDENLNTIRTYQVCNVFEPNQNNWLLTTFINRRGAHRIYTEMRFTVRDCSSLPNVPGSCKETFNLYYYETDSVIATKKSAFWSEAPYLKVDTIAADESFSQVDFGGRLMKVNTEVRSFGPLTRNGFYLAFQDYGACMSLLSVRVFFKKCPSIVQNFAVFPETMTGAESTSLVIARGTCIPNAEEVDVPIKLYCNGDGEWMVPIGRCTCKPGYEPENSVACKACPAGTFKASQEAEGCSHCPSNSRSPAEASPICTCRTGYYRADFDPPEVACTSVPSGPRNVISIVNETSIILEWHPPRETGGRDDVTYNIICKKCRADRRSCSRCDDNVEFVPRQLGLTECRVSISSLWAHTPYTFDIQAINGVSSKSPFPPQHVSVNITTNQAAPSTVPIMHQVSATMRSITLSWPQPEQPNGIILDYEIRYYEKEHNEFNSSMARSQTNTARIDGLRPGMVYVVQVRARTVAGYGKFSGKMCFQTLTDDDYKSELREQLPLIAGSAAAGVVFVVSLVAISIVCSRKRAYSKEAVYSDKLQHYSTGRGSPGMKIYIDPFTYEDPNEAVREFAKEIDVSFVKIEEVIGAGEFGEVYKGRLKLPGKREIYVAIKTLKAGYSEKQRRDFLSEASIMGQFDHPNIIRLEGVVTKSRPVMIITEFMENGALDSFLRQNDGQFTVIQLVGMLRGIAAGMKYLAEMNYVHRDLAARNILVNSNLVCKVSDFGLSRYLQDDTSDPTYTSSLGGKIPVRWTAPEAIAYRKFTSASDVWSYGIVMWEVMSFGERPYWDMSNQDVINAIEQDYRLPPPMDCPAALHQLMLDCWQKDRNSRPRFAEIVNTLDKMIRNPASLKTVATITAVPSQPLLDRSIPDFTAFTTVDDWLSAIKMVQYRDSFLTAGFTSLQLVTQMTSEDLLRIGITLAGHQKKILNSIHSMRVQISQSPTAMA

[4] = target: T2, panel of 255 wild-type kinases (Homo sapiens, UniProt Q08881); settings: kinase ITK; 1 µmol/L single concentration; read-out: %-inhibition at 1 µmol/L, ITK
T2 sequence (Q08881 1-620): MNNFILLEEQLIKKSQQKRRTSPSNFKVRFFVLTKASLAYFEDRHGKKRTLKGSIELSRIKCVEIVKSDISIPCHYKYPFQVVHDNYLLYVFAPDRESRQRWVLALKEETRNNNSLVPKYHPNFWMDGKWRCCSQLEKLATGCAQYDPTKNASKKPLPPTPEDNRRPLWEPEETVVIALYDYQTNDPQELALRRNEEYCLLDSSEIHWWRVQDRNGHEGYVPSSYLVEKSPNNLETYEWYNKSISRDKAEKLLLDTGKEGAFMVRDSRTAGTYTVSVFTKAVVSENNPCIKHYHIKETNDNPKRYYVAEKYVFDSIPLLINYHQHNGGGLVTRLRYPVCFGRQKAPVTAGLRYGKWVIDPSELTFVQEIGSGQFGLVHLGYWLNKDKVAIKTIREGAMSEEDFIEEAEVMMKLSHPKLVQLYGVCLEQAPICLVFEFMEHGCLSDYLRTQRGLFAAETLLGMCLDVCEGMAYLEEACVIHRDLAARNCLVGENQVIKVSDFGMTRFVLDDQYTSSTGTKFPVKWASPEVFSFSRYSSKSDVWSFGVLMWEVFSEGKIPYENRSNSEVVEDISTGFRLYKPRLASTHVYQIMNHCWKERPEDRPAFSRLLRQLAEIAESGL

[5] = target: T3, panel of 255 wild-type kinases (Homo sapiens, UniProt Q8TF76); settings: kinase Haspin; 1 µmol/L single concentration; read-out: %-inhibition at 1 µmol/L, Haspin
T3 sequence (Q8TF76 1-798): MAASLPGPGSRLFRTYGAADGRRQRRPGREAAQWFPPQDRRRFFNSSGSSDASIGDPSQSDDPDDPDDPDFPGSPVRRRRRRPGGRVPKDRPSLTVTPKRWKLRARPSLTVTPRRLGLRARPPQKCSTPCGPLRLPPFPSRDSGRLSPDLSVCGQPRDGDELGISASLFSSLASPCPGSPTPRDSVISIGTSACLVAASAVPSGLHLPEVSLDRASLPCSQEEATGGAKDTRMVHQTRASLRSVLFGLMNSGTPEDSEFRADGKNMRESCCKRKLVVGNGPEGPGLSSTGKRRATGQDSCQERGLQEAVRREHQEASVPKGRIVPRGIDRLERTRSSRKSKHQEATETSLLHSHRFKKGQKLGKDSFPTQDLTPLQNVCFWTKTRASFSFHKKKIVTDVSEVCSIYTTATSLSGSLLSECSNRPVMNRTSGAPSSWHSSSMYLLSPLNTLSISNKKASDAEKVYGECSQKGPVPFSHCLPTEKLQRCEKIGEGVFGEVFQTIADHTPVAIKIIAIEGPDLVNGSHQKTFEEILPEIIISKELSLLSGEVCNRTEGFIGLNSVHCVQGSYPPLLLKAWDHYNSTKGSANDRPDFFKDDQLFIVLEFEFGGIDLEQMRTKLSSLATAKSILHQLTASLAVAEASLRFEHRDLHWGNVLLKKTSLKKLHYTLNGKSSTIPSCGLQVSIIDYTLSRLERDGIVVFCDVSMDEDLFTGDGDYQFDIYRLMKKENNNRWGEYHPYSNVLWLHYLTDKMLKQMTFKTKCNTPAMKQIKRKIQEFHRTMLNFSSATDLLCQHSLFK

[6] = target: panel of 255 wild-type kinases (Homo sapiens, UniProt Q9BUB5); settings: MNK1; 1 µmol/L single concentration; read-out: %-inhibition, MNK1
[7] = target: panel of 255 wild-type kinases (Homo sapiens, UniProt Q9H4A3); settings: kinase WNK1; 1 µmol/L single concentration; read-out: %-inhibition at 1 µmol/L, WNK1

| SMILES | inhibition at 1 µM [1] [%] | inhibition at 1 µM [2] [%] | inhibition at 1 µM [3] [%] | inhibition at 1 µM [4] [%] | inhibition at 1 µM [5] [%] | inhibition at 1 µM [6] [%] | inhibition at 1 µM [7] [%] |
| --- | --- | --- | --- | --- | --- | --- | --- |
| CO[C@]1(C(=O)N[C@@H](C)c2ccc(-n3cc(F)cn3)nc2)CC[C@H](c2nc(C)cc(Nc3cc(C)[nH]n3)n2)CC1 [pralsetinib] | 98 | 66 | 58 | 59 | 0.149 | -4.32 | -2.67 |
| C=CC(=O)N1CCC([C@@H]2CCNc3c(C(N)=O)c(-c4ccc(Oc5ccccc5)cc4)nn32)CC1 [zanubrutinib] | -0.375 | -11 | -2 | 34 | -1.75 | -4.39 | 0 |
| Cn1cc(-c2cc3c(N4CCN(c5ncc([C@@](C)(N)c6ccc(F)cc6)cn5)CC4)ncnn3c2)cn1 [avapritinib] | 52 | 8 | 65 | 19 | 59 | 72 | -5.32 |
